Results: US20140271742A1, “SKIN TANNING USING PEPTIDES AND OTHER COMPOSITIONS” (priority 2013, published 2014)

Tests used:
[1] = Laser Doppler capillary blood flow in humans, 10,000 ppm NO in closed Hilltop chamber (Example 5); assay type: in vivo, human; conditions: applied to the skin at 1/10% in alcohol
Description: The formulation used in these studies contained nitric oxide dispersed in a lipid matrix. […] Nitric oxide is a very rapid acting molecule, and these studies used a system that employed laser Doppler with a covered chamber. The formulation was placed into the chamber and then attached to the skin by an adhesive layer on the covering. This provided a stable measuring device as determined by multiple normal evaluations of the capillary blood flow without treatment of nitric oxide.
A known positive control, methyl nicotinate, was applied to the skin at a concentration of 1/10% in alcohol. […] The vascular dynamics are such that when the blood vessels dilate physical parameters follow Bernoulli's law. This states that as one increases the diameter of a tube containing a liquid to flow will increase but the pressure and the speed of the liquid will decrease. The laser Doppler device accurately measured these parameters.
The test product was labeled as 10,000 ppm NO (nitric oxide). The study participants had 100 mg of the test product applied in a closed Hilltop chamber on the forearm. […]
A Moor Instruments DRT4 Laser Doppler Blood Flow Monitor (Devon, England) was used in these studies. The laser Doppler technique measured blood flow in the microcapillaries of the skin that are close to the skin surface and the blood flow in underlying arterioles and venules that help to regulate skin temperature. […]

[2] = Laser Doppler circulation in five human subjects, NO creams and controls (Example 8); assay type: in vivo; conditions: positive control formulation containing 0.1% methyl nicotinate
Description: This example illustrates delivery of nitric oxide formulations to five human subjects, using procedures and formulations similar to those discussed in Example 5. Each person served as their own control for the testing. A Moor Instruments Laser Doppler was used to determine circulation. […] The formulations used produce positive, almost immediate results when applied to the skin which, in these studies, was manifested by vasodilatation of the cutaneous vascular system.
For each subject, the following creams were applied: a negative control formulation (containing no NO), 0.010 gram of a 10,000 ppm NO formulation, 0.020 gram of a 10,000 ppm NO formulation, and a positive control formulation containing 0.1% methyl nicotinate. The formulations were prepared using procedures similar to those discussed in Example 1.

## COC(=O)c1cccnc1 [methyl nicotinate]
[1]
  Laser Doppler response of positive control: rapid response typical of the vasodilator
[2]
  Vasodilatation (laser Doppler): vasodilatation was observed
